Results reported in patent US9474790B2, “Stable, protracted GLP-1/glucagon receptor co-agonists for medical use” (Novo Nordisk A/S, priority 2013, dated 2016).
Numbered stars: 1 amine (or outer) side, 2 acyl side, 3 side chain; on linkers, the order of the positions; unused ones are H or OH. Bridge positions count the residues as written; N and C are the ends. Square brackets hold non-standard residues; d marks the D form. Side chains are listed from the residue outwards. Peptide text beside a SMILES is read from it. I, II: the chains in the order shown. * marks the point of attachment. C18 diacid = O=C(O)CCCCCCCCCCCCCCCCC(=O)*; γGlu = O=C(O)[C@H](CCC(=O)[*:2])N[*:1]; Ac4c = NC1(C(=O)O)CCC1; AEEA = NCCOCCOCC(=O)O; Aib = CC(C)(N)C(=O)O

Biological target: T1, human GLP-1 receptor (Homo sapiens, UniProt P43220)
T1 construct: expressed in transfected cells; host or cells: BHK cells (parent BHKTS13), clone FCW467-12A/KZ10-1, with CRE luciferase
T1 sequence (P43220 24-463): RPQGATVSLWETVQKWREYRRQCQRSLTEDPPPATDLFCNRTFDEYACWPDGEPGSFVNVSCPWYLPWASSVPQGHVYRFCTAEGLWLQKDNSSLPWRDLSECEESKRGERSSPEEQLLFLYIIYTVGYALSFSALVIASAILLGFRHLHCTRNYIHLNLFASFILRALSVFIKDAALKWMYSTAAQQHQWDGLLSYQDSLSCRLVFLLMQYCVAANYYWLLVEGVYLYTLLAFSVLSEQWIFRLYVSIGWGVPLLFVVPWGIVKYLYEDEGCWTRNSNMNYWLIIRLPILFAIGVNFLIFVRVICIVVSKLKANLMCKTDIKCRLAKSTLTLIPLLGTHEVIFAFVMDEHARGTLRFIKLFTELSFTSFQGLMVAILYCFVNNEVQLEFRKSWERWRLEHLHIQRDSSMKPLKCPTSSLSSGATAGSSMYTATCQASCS
Experiment: GLP-1 receptor potency, CRE luciferase reporter gene assay in BHK cells
Assay type: cell-based
Conditions: BHK cells expressing human GLP-1 receptor, read-out: EC50 GLP-1R
How it was run: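 Potency as cAMP-driven firefly luciferase signal after 3 h, 37° C exposure to 10-fold dilutions (final 1×10EE-13–1×10EE-6 M). Stable hGLP-1R/CRE-luc BHK clone, 5×10EE3 cells/well, medium containing 2% ovalbumin and 0.2% Pluronic F-68; EC50 (pM) from variable-slope non-linear regression.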

Question: Which EC50 does the source give for CC(C)C[C@H](NC(=O)[C@H](Cc1ccc(O)cc1)NC(=O)[C@H](CCCNC(=N)N)NC(=O)[C@H](CO)NC(=O)[C@H](CC(C)C)NC(=O)[C@H](CC(=O)O)NC(=O)[C@H](CO)NC(=O)[C@@H](NC(=O)[C@H](Cc1ccccc1)NC(=O)[C@@H](NC(=O)CNC(=O)[C@H](CCC(N)=O)NC(=O)C1(NC(=O)[C@@H](N)Cc2c[nH]cn2)CCC1)[C@@H](C)O)[C@@H](C)O)C(=O)N[C@@H](CCC(=O)O)C(=O)N[C@@H](CO)C(=O)N[C@@H](CCCNC(=N)N)C(=O)N[C@@H](CCCNC(=N)N)C(=O)N[C@@H](C)C(=O)N[C@@H](CCCNC(=N)N)C(=O)N[C@@H](CCC(=O)O)C(=O)N[C@@H](Cc1ccccc1)C(=O)N[C@H](C(=O)N[C@@H](CCC(N)=O)C(=O)N[C@@H](Cc1c[nH]c2ccccc12)C(=O)N[C@@H](CC(C)C)C(=O)N[C@@H](CC(C)C)C(=O)N[C@@H](CCCCNC(=O)CC[C@H](NC(=O)CC[C@H](NC(=O)COCCOCCNC(=O)COCCOCCNC(=O)CC[C@H](NC(=O)CC[C@H](NC(=O)CCCCCCCCCCCCCCCCC(=O)O)C(=O)O)C(=O)O)C(=O)O)C(=O)O)C(=O)N[C@H](C(N)=O)[C@@H](C)O)C(C)C [Example 59, N^ε28-[(4S)-4-carboxy-4-[[(4S)-4-carboxy-4-[[2-[2-[2-[[2-[2-[2-[[(4S)-4-carboxy-4-[[(4S)-4-carboxy-4-(17-carboxyheptadecanoylamino)butanoyl]amino]butanoyl]amino]ethoxy]ethoxy]acetyl]amino]ethoxy]ethoxy]acetyl]amino]butanoyl]amino]butanoyl]-[Acb2,Leu10,Arg12,Glu15,Arg20,Glu21,Leu27,Lys28]-Glucagon amide] (H-H[Ac4c]QGTFTSDLSRYLESRRAREFVQWLLK([γGlu-γGlu-AEEA-AEEA-γGlu-γGlu-C18 diacid])T-NH2; N-terminus assumed) here?
Answer: 4 pM

Question: How did the EC50 turn out when CC(C)C[C@H](NC(=O)[C@H](CC(=O)O)NC(=O)[C@H](CC(C)C)NC(=O)[C@H](Cc1ccc(O)cc1)NC(=O)[C@H](CCCCN)NC(=O)[C@H](CO)NC(=O)[C@H](CC(C)C)NC(=O)[C@H](CC(=O)O)NC(=O)[C@H](CO)NC(=O)[C@@H](NC(=O)[C@H](Cc1ccccc1)NC(=O)[C@@H](NC(=O)CNC(=O)[C@H](CCC(N)=O)NC(=O)C1(NC(=O)[C@@H](N)Cc2c[nH]cn2)CCC1)[C@@H](C)O)[C@@H](C)O)C(=O)N[C@@H](CCCNC(=N)N)C(=O)N[C@@H](CCCNC(=N)N)C(=O)N[C@@H](C)C(=O)N[C@@H](CCCNC(=N)N)C(=O)N[C@@H](CCC(=O)O)C(=O)N[C@@H](Cc1ccccc1)C(=O)N[C@H](C(=O)N[C@@H](CCC(N)=O)C(=O)N[C@@H](Cc1c[nH]c2ccccc12)C(=O)N[C@@H](CC(C)C)C(=O)N[C@@H](CC(C)C)C(=O)N[C@@H](CCCCNC(=O)CC[C@H](NC(=O)CC[C@H](NC(=O)COCCOCCNC(=O)COCCOCCNC(=O)CC[C@H](NC(=O)CC[C@H](NC(=O)CCCCCCCCCCCCCCCCC(=O)O)C(=O)O)C(=O)O)C(=O)O)C(=O)O)C(=O)N[C@H](C(N)=O)[C@@H](C)O)C(C)C [Example 49, N^ε28-[(4S)-4-carboxy-4-[[(4S)-4-carboxy-4-[[2-[2-[2-[[2-[2-[2-[[(4S)-4-carboxy-4-[[(4S)-4-carboxy-4-(17-carboxyheptadecanoylamino)butanoyl]amino]butanoyl]amino]ethoxy]ethoxy]acetyl]amino]ethoxy]ethoxy]acetyl]amino]butanoyl]amino]butanoyl]-[Acb2,Leu10,Leu16,Arg20,Glu21,Leu27,Lys28]-Glucagon amide] (H-H[Ac4c]QGTFTSDLSKYLDLRRAREFVQWLLK([γGlu-γGlu-AEEA-AEEA-γGlu-γGlu-C18 diacid])T-NH2; N-terminus assumed) was run?
Answer: 17 pM

Question: CC(C)C[C@H](NC(=O)[C@H](Cc1ccc(O)cc1)NC(=O)[C@H](CCCCN)NC(=O)[C@H](CO)NC(=O)[C@H](CC(C)C)NC(=O)[C@H](CC(=O)O)NC(=O)[C@H](CO)NC(=O)[C@@H](NC(=O)[C@H](Cc1ccccc1)NC(=O)[C@@H](NC(=O)CNC(=O)[C@H](CCC(N)=O)NC(=O)C(C)(C)NC(=O)[C@@H](N)Cc1c[nH]cn1)[C@@H](C)O)[C@@H](C)O)C(=O)N[C@@H](CCC(=O)O)C(=O)N[C@@H](CO)C(=O)N[C@@H](CCCCN)C(=O)N[C@@H](CCCNC(=N)N)C(=O)N[C@@H](C)C(=O)N[C@@H](CCCNC(=N)N)C(=O)N[C@@H](CO)C(=O)N[C@@H](Cc1ccccc1)C(=O)N[C@H](C(=O)N[C@@H](CCC(N)=O)C(=O)N[C@@H](Cc1c[nH]c2ccccc12)C(=O)N[C@@H](CC(C)C)C(=O)N[C@@H](CC(C)C)C(=O)N[C@@H](CCCCNC(=O)CC[C@H](NC(=O)CC[C@H](NC(=O)[C@H](CO)NC(=O)[C@H](CCC(=O)O)NC(=O)[C@H](CO)NC(=O)CC[C@H](NC(=O)CC[C@H](NC(=O)CCCCCCCCCCCCCCCCC(=O)O)C(=O)O)C(=O)O)C(=O)O)C(=O)O)C(=O)N[C@H](C(N)=O)[C@@H](C)O)C(C)C [Example 69, N^ε28-[(4S)-4-carboxy-4-[[(4S)-4-carboxy-4-[[(2S)-2-[[(2S)-4-carboxy-2-[[(2S)-2-[[(4S)-4-carboxy-4-[[(4S)-4-carboxy-4-(17-carboxyheptadecanoylamino)butanoyl]amino]butanoyl]amino]-3-hydroxypropanoyl]amino]butanoyl]amino]-3-hydroxypropanoyl]amino]butanoyl]amino]butanoyl]-[Aib2,Leu10,Glu15,Lys17,Arg20,Ser21,Leu27,Lys28]-Glucagon amide] (H-H[Aib]QGTFTSDLSKYLESKRARSFVQWLLK([γGlu-γGlu-Ser-Glu-Ser-γGlu-γGlu-C18 diacid])T-NH2; N-terminus assumed) was tested. Which EC50 did it give?
Answer: 7 pM

Question: How did the EC50 turn out when CC(C)C[C@H](NC(=O)[C@H](Cc1ccc(O)cc1)NC(=O)[C@H](CCCCN)NC(=O)[C@H](CO)NC(=O)[C@H](CC(C)C)NC(=O)[C@H](CC(=O)O)NC(=O)[C@H](CO)NC(=O)[C@@H](NC(=O)[C@H](Cc1ccccc1)NC(=O)[C@@H](NC(=O)CNC(=O)[C@H](Cc1c[nH]cn1)NC(=O)C(C)(C)NC(=O)[C@@H](N)Cc1c[nH]cn1)[C@@H](C)O)[C@@H](C)O)C(=O)N[C@@H](CCC(=O)O)C(=O)N[C@@H](CO)C(=O)N[C@@H](CCCNC(=N)N)C(=O)N[C@@H](CCCNC(=N)N)C(=O)N[C@@H](C)C(=O)N[C@@H](CCCNC(=N)N)C(=O)N[C@@H](CC(=O)O)C(=O)N[C@@H](Cc1ccccc1)C(=O)N[C@H](C(=O)N[C@@H](CCC(N)=O)C(=O)N[C@@H](Cc1c[nH]c2ccccc12)C(=O)N[C@@H](CC(C)C)C(=O)N[C@@H](CC(C)C)C(=O)N[C@@H](CCCCNC(=O)CNC(=O)[C@H](CO)NC(=O)[C@H](CCC(=O)O)NC(=O)CNC(=O)[C@H](CO)NC(=O)CC[C@H](NC(=O)CC[C@H](NC(=O)CCCCCCCCCCCCCCCCC(=O)O)C(=O)O)C(=O)O)C(=O)N[C@H](C(N)=O)[C@@H](C)O)C(C)C [Example 37, N^ε28-[2-[[(2S)-2-[[(2S)-4-carboxy-2-[[2-[[(2S)-2-[[(4S)-4-carboxy-4-[[(4S)-4-carboxy-4-(17-carboxyheptadecanoylamino)butanoyl]amino]butanoyl]amino]-3-hydroxypropanoyl]amino]acetyl]amino]butanoyl]amino]-3-hydroxypropanoyl]amino]acetyl]-[Aib2,His3,Leu10,Glu15, Arg20,Leu27,Lys28]-Glucagon amide] (I: H-H[Aib]HGTFTSDLSKYLESRRARDFVQWLLKT-NH2 / II: {C18 diacid-γGlu-γGlu}-SGESG; amide I:28-II:C; N-terminus assumed) was run?
Answer: 4 pM

Question: How did the EC50 turn out when CC(C)C[C@H](NC(=O)[C@H](Cc1ccc(O)cc1)NC(=O)[C@H](CCCCN)NC(=O)[C@H](CO)NC(=O)[C@H](CC(C)C)NC(=O)[C@H](CC(=O)O)NC(=O)[C@H](CO)NC(=O)[C@@H](NC(=O)[C@H](Cc1ccccc1)NC(=O)[C@@H](NC(=O)CNC(=O)[C@H](CCC(N)=O)NC(=O)C1(NC(=O)[C@@H](N)Cc2c[nH]cn2)CCC1)[C@@H](C)O)[C@@H](C)O)C(=O)N[C@@H](CCC(=O)O)C(=O)N[C@@H](CO)C(=O)N[C@@H](CCCNC(=N)N)C(=O)N[C@@H](CCCNC(=N)N)C(=O)N[C@@H](C)C(=O)N[C@@H](CCCNC(=N)N)C(=O)N[C@@H](CCC(=O)O)C(=O)N[C@@H](Cc1ccccc1)C(=O)N[C@H](C(=O)N[C@@H](CCC(N)=O)C(=O)N[C@@H](Cc1c[nH]c2ccccc12)C(=O)N[C@@H](CC(C)C)C(=O)N[C@@H](CC(C)C)C(=O)N[C@@H](CCCCNC(=O)CC[C@H](NC(=O)CC[C@H](NC(=O)COCCOCCNC(=O)COCCOCCNC(=O)CC[C@H](NC(=O)CCCCCCCCCCCCCCCCC(=O)O)C(=O)O)C(=O)O)C(=O)O)C(=O)N[C@H](C(N)=O)[C@@H](C)O)C(C)C [Example 44, N^ε28-[(4S)-4-carboxy-4-[[(4S)-4-carboxy-4-[[2-[2-[2-[[2-[2-[2-[[(4S)-4-carboxy-4-(17-carboxyheptadecanoylamino)butanoyl]amino]ethoxy]ethoxy]acetyl]amino]ethoxy]ethoxy]acetyl]amino]butanoyl]amino]butanoyl]-[Acb2,Leu10,Glu15,Arg20,Glu21,Leu27,Lys28]-Glucagon amide] (H-H[Ac4c]QGTFTSDLSKYLESRRAREFVQWLLK([γGlu-γGlu-AEEA-AEEA-γGlu-C18 diacid])T-NH2; N-terminus assumed) was run?
Answer: 3 pM
